According to patent US8114850B2, “Antiproliferative activity of G-rich oligonucleotides and method of using same to bind to nucleolin” (Advanced Cancer Therapeutics, LLC, priority 1999, dated 2012):

Assays:
[1] = Phase 1 study, toxicity; type: in vivo, human; conditions: doses up to 40 mg/kg/day for up to 7 days, continuous i.v. infusion
Description: (§1) The SEQ ID NO:12 aptamer was administered to individuals as a continuous intravenous infusion. All individuals received one or two cycles of treatment. The dose escalation protocol provided a division of the subjects into cohorts of 3 in sequential order. If no individuals in a cohort experienced DLT within […] of treatment, the dosage was escalated to the next level. The dosage was increased up to 10 mg/kg/day for 7 days in the first 17 individuals and increased up to 40 mg/kg/day for 7 days in the RCC/NSCLC extension. The original starting dose was about 1 mg/kg/day for 4 days for both sets of individuals.
If no subject in the first cohort experienced DLT within 14 days of treatment, the dose for the next cohort was escalated to the next level. […] For this study, DLT was identified as grade 3-4 non-hematological toxicity, grade 4 hematological toxicity that persisted for 3 or more days, grade 4 febrile neutropenia, or grade 4 thrombocytopenia with bleeding. […]
(§2) Baseline evaluations included medical history, 12-lead electrocardiogram, safety assessments and tumor measurements within 1 week of the start of the study. Individuals were monitored in the hospital during infusion of the SEQ ID NO:12 aptamer (days 1-8) and then evaluated subsequently on days 15, 29 and 58.

[2] = system: advanced, metastatic RCC (renal-cell carcinoma); assay: Phase 1 study, RCC patients; type: in vivo, human
Description: (§3) A Phase 1, open label, non-randomized dose escalation study of SEQ ID NO:12 was conducted on 17 human individuals with various advanced malignancies. […] After these 17 individuals had received treatment, only individuals with RCC (renal-cell carcinoma) or non-small-cell lung cancer (NSCLC) were enrolled in the clinical trial to obtain data for more homogenous patient populations and thereby enhance the quality of the results.
Following these findings, the trial was extended to include additional individuals (“patients”) with RCC (renal-cell carcinoma) or non-small-cell lung cancer. All of said individuals had progressive, metastatic cancers upon entry to the study. It should be noted that none of the individuals had received chemotherapy, radiotherapy or any investigational agent for cancer within the 4 weeks prior to entry to the study or 6 weeks prior for nitrosourea or mitomycin C. All individuals enrolled in the study were evaluable for toxicity and response and had measurable disease, i.e. able to be measured accurately in one or more dimension(s). Participants of the study were recruited at one site: the University of Louisville, James Brown Cancer Center, in Louisville, Ky., USA. The study was conducted in accordance with Good Clinical Practices and the Declaration of Helsinki. Institutional Review Board approval and informed patient consent were obtained before the study began.
as §1
If no subject in the first cohort experienced DLT within 14 days of treatment, the dose for the next cohort was escalated to the next level. […] For this study, DLT was identified as grade 3-4 non-hematological toxicity, grade 4 hematological toxicity that persisted for 3 or more days, grade 4 febrile neutropenia, or grade 4 thrombocytopenia with bleeding. Toxicity was graded according to the National Cancer Institute Common Terminology for Adverse Events (“NCI-CTCAE”) version 3.0.
Dose escalation was accomplished by doubling until a biological effect was noted (i.e., by development of NCI-CTCAE grade 2 toxicity), at which point the dose was escalated using a modified Fibonacci design (dose increments to 1.6 times the pervious dose level). The maximum dose for the study was 40 mg/kg/day.
as §2
Efficacy was assessed by tumor measurements and radiological evaluation at baseline ([…] to the start of the study), at day 29 and day 58.
Tumor measurements were conducted using photographs (skin lesions), chest X-rays, CT scans, magnetic resonance imaging (MRI) and ultrasound. The assessments of tumor measurements were conducted using the Response Evaluation Criteria in Solid Tumors (RECIST) guidelines. See Arbuck et al., (2000) Journal Nat'l Cancer Inst., 92: 205-16. All tumor measurements were taken in metric notation using a ruler or caliper.
As a preliminary note, tumor response was evaluated using RECIST guidelines and categorized as complete response (CR), partial response (PR), stable disease (SD) or progressive disease (PD). […]

[3] = Stability in serum; type: in vitro ADME
Description: The effects of four G-rich phosphodiester oligonucleotides (GROs) on the growth of tumor cells in culture were tested. These oligonucleotides consisted entirely of deoxyguanosine and thymidine and contained at least two contiguous guanosines. For increased stability to serum nucleases, oligonucleotides were modified at the 3′-terminus with a propylamino group. This modification protects the oligonucleotides from degradation in serum containing medium for at least twenty-four hours.

[4] = biological target: T1, G-rich oligonucleotide binding protein / nucleolin (Homo sapiens, UniProt P19338); assay: Protein binding, summary statements (EMSA); conditions: characterization of the aptamer
T1 construct: endogenous in cells; MDA-MB-231)
Excerpt: By G-rich oligonucleotide (GRO) it is meant that the oligonucleotides consist of 4-100 nucleotides (preferably 10-30 nucleotides) with DNA, RNA, 2′-O-methyl, phosphorothioate or other chemically similar backbones. Their sequences contain one or more GGT motifs. The oligonucleotides have antiproliferative activity against cells and bind to GRO binding protein and/or nucleolin.
Additionally, the present invention provides a method for selecting oligonucleotides that bind to nucleolin. The method utilizes an electrophoretic mobility shift assay (EMSA), as described below, to screen for oligonucleotides that bind strongly to nucleolin and which, therefore, would be expected, according to the present invention, to have anti-proliferative activity. Oligonucleotides to be screened as potential antiproliferative agents are labeled and then incubated with nuclear extracts in the absence or presence of unlabeled competitor oligonucleotide and are allowed to react. The reaction mixtures are then electrophoresed and mobility shifts and/or bond intensity can be used to identify those oligonucleotides which have bound to the specific protein.
Alternatively, unlabeled compounds to be screened are incubated with nuclear extracts in the presence of labeled oligonucleotide (for example 5′-TTAGGGTTAGGGTTAGGG TTAGGG) (SEQ ID NO: 20) and binding is assessed by a decrease in the intensity of the shifted band, as in FIG. 6B.

[5] = system: non-small-cell lung cancer (NSCLC); assay: Phase 1 study, NSCLC patients; type: in vivo, human; conditions: RECIST
Description: as §3
Following these findings, the trial was extended to include additional individuals (“patients”) with RCC (renal-cell carcinoma) or non-small-cell lung cancer. All of said individuals had progressive, metastatic cancers upon entry to the study. […] All individuals enrolled in the study were evaluable for toxicity and response and had measurable disease, i.e. able to be measured accurately in one or more dimension(s). […]
as §2
Efficacy was assessed by tumor measurements and radiological evaluation at baseline ([…] to the start of the study), at day 29 and day 58. […]

[6] = system: tumor cells; assay: In-vitro experiments with SEQ ID NO:12 in tumor cells; type: cell-based
Excerpt: SEQ ID NO: 12, a G-rich oligonucleotide (GRO) aptamer comprising a single-strand oligonucleotide of 26 bases, was selected for the study. […] Preclinical data indicates potential of SEQ ID NO: 12 against a wide variety of solid and hematologic malignancies.

T1 sequence (P19338 whole entry): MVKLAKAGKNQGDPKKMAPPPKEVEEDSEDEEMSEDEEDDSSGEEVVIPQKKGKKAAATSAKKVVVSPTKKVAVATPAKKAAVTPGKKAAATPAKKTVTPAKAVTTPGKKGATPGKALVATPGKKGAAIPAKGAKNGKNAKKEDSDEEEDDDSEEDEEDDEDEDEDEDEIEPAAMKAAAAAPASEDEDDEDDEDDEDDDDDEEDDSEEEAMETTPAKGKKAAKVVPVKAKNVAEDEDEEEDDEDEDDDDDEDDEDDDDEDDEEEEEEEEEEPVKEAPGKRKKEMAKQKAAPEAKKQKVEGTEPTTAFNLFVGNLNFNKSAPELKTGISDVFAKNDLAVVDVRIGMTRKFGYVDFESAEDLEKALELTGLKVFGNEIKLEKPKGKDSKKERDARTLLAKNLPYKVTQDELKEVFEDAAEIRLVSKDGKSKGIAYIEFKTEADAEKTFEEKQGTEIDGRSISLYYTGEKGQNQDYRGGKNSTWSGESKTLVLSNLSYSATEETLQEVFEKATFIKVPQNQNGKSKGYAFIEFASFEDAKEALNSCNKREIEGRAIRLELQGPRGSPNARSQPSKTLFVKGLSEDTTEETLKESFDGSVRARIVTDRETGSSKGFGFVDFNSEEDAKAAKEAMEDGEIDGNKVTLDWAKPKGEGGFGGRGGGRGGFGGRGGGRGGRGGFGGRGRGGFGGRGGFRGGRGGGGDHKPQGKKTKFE

## 5′-GGTGGTGGTGGTTGTGGTGG TGGTGG-3′ [SEQ ID NO:12]
[1]
  tolerability / toxicity: well tolerated with no serious toxicity of any type related to drug administration
[2]; 18 months after treatment
  metastasis, first RCC responder: single brain metastasis
[2]; 26 months after one seven-day infusion at 10 mg/kg
  disease status, first RCC responder: no evidence of disease
[2]; RCC patients, RECIST
  clinical benefit (CR+PR+SD): 75%
[2]; RCC patients, continuous i.v. infusion, up to 40 mg/kg/day for up to 7 days, RECIST
  response rate (CR+PR): 17%
[2]; RCC subjects, RECIST
  complete response: 8.4%
  partial response: 8.4%
  stable disease for the duration of the study: 58%
[2]; second RCC responder, two seven-day infusions at 22 mg/kg
  decrease in the sum of greatest linear dimensions of target lesions from baseline: about 70%
[3]
  stability in serum: extremely stable and resistant to degradation by serum enzymes
[4]
  specificity of binding: specificity for nucleolin
[5]
  stable disease for the duration of the study: 40%
[6]
  anti-proliferative response in tumor cells: strong anti-proliferative response
